PMC11645267, “Novel pharmacologic inhibition of lysine-specific demethylase 1 as a potential therapeutic for glioblastoma” (Cancer Gene Therapy, 2024)

Key:
[1] = test system: GSC1228, GSC222, and GSC316; test: Western blot of global histone modifications; type: cell-based; conditions: 5 μM, 96 h; changes not statistically significant
Experimental: The effects of S2172 on global histone modifications in GSCs were examined using western blot analysis. GSC cells were treated with 5 μM of S2172 since […] of the cells are still viable at this concentration (Fig. 2, Supplementary Fig. S1E). […] Treatment of GSCs with S2172 increased the overall levels of H3K4me2 as well as H3K9me2. However, these changes were not statistically significant (Fig. 2A, B).
Fig. 2 S2172 affected H3K4me2 modifications. A Western blot analysis of H3K4me1, H3K4me2, H3K4me3, H3K9me2, and H3 after treatment with either DMSO or S2172 (5 μM) for 96 h in GSC1228, GSC222, and GSC316. Histone H3 was used as the loading control. B Quantification of band signal intensities from the western blot of A. The y-axis in the panel indicates relative signal intensity of each protein normalized to histone H3. Error bars indicate the SD. […]
The density of bands was quantified using ImageJ software (https://imagej.nih.gov/ij/). […]
When mice were scanned with MRI, mice were anesthetized with isoflurane (3% in air) and placed in MRS 3017 Benchtop MRI Systems (MR Solutions, Guildford, UK). Using MRI images, tumor volumes were obtained by compiling tumor areas from all slices that contained tumors and calculated by ImageJ software (https://imagej.nih.gov/ij/) {Towner, […]

GSC cells [2] = test: RNA-seq analysis of enhancer/super-enhancer related genes; type: cell-based, human; conditions: 5 μM, 96 h, relative to DMSO
Experimental: GSC cells treated with either DMSO (n = 4) or S2172 (5 μM, n = 4) for 96 h and total RNA was isolated with RNeasy mini kit (Qiagen). The RNA purity was determined using Agilent Tape Station (Agilent Technologies). Illumina TruSeq RNA sample preparation was conducted and the samples were run on an Illumina Hiseq XTen (Illumina). RNA-seq was aligned using HISAT2 under default setting to Homo Sapience hg38 [35]. TPM were generated using StringTie and differential expression analysis were performed using DESeq2 [37].
(§1) RNA-seq analysis was conducted to examine gene expression changes associated with super-enhancers/enhancers. Among the genes with de novo H3K4me2 modification, the average log2 fold changes (S2172 treatment relative to DMSO treatment) were −0.12 ± 0.03 for super-enhancer-related genes and −0.01 ± 0.01 for typical enhancer-related genes (P = 0.0004) (Supplementary Fig. S6B). In contrast, among the genes with increased H3K4me2 modification, the average log2 fold changes were −0.04 ± 0.01 for super-enhancer-related genes and −0.07 ± 001 for typical enhancer-related genes (P = 0.028) (Supplementary Fig. S6C).

GSC cells [3] = test: mRNA expression of super-enhancer-associated genes; type: cell-based; conditions: 96 h
Experimental: as §1, with “S6C). […]” for “S6C).”
instructions. For GSC cells, the CellTiter-Glo 3D Viability Assay (Promega, Madison, WI, USA) was used to measure the living cells. All proliferation experiments were repeated […]
Total RNA from the cell lines was extracted using TRIzol (Thermo Fisher Scientific), followed by reverse-transcription using Prime Script RT Master Mix (Takara, Kusatsu, Japan). TaqMan qPCR (Roche Diagnostics, Basel, Switzerland) and SYBR Green qPCR (TOYOBO, Osaka, Japan) were performed at least in triplicate for the target genes.
Expression levels of each gene were normalized to GAPDH. GAPDH for TaqMan PCR assays was Hs.PT.39a.22214836 (Integrated DNA Technologies, Coralville, IA, USA).
Oligonucleotide primers used for SYBR Green assays are shown in Supplementary […]

LSD1 = LSD1 (Homo sapiens, UniProt O60341); test: Enzyme inhibition assay (in vitro peroxidase assay) against LSD1
Experimental: Enzyme inhibition assays against LSD1, LSD2, MAO-A, and MAO-B were performed as previously described [25]. Technical replicates, n = 3.

Ki (LSD1): 270 ± 60 nM
kinact (LSD1; read-out: kinact LSD1): 0.0026 ± 0.0002 s⁻¹
kinact/KI (LSD1; read-out: kinact/Ki LSD1): 9800 ± 570 M⁻¹ s⁻¹
SMILES: NC1CCC(NC2CC2c2cc(F)cc(F)c2OCc2ccccc2)CC1 (stereo not drawn) [S2172]
overall levels of H3K4me2 and H3K9me2 [1]: increased
average log2 fold change of expression, super-enhancer-related genes with de novo H3K4me2 (GSC cells [2]): −0.12 ± 0.03
average log2 fold change of expression, super-enhancer-related genes with increased H3K4me2 (GSC cells [2]): −0.04 ± 0.01
average log2 fold change of expression, typical enhancer-related genes with de novo H3K4me2 (GSC cells [2]): −0.01 ± 0.01
average log2 fold change of expression, typical enhancer-related genes with increased H3K4me2 (GSC cells [2]): −0.07 ± 001
expression of super-enhancer-associated genes EGR1 and CDK6 (GSC cells [3]): downregulated
